Results as given in ChEMBL document CHEMBL1127033, “Synthesis and anti-HIV-1 activity of a series of imidazo[1,5-b]pyridazines” (J Med Chem, 1993).
Values joined by “and” are separate entries in the source; they are usually repeats but may differ in a detail not shown here. Equal values may be shown once.

Assays:
[1] = tested on: MT4; assay: Inhibition of growth in uninfected MT-4 cells in MTM assay; assay type: functional, cell-based; conditions: Homo sapiens
[2] = biological target: T1, Human immunodeficiency virus type 1 reverse transcriptase (Human immunodeficiency virus 1, UniProt Q72547); assay: In vitro inhibitory concentration against reverse transcriptase of HIV-1 (RT)
[3] = tested on: C8166; assay: Inhibition of p24 antigen formation in infected C8166-cells; assay type: functional, cell-based; conditions: Homo sapiens
[4] = tested on: C8166; assay: Inhibition of syncytia formation in infected C8166-cells; assay type: functional, cell-based; conditions: Homo sapiens
[5] = tested on: Human immunodeficiency virus 1; assay: (§1) Inhibition of HIV-1 (strain A17)-infected MT-4 cells; assay type: functional, organism-based; conditions: Human immunodeficiency virus 1, MT4
[6] = tested on: MT4; assay: as §1; assay type: functional, cell-based; conditions: Homo sapiens
[7] = biological target: T1, Human immunodeficiency virus type 1 reverse transcriptase; assay: Inhibition of reverse transcriptase activity of HIV-1 in the presence of [alpha35 S] TTP as cosubstrate.
[8] = biological target: T1, Human immunodeficiency virus type 1 reverse transcriptase; assay: Inhibition of reverse transcriptase of HIV-1 (strain RF)-infected MT-4 cells in RPMI 1640 growth medium in MTM assay; Toxic; assay type: cell-based; conditions: mt4

Compound | IC50 [1] | IC50 [2] | EC50 [3] | EC50 [4] | also measured
Cc1nc(CCCCCOC(=O)C2CCCC2)n2nc(Cl)ccc12 | 250000 nM | 22000 nM | – | – | –
Cc1cn([C@H]2C[C@H](N=[N+]=[N-])[C@@H](CO)O2)c(=O)[nH]c1=O [ZIDOVUDINE] | – | – | 20 nM | 30 nM | EC50 [5]: 10 nM
Cc1nc(CCCCCCC(O)c2ccccc2)n2nc(Cl)ccc12 (stereo unspecified) | 250000 nM | 380 nM | < 80 nM | < 80 nM | –
Cc1nc(CCCCCC(=O)c2ccccc2)n2nc(Cl)ccc12 | 250000 nM | 4800 nM | – | – | –
Cc1nc(CCCCCCC(=O)c2ccccc2)n2nc(-n3cccc3)ccc12 | 26000 nM | 80 nM | 5 nM | 7 nM | –
Cc1nc(CCCCCCCc2ccccc2)n2nc(Cl)ccc12 | 250000 nM | 14000 nM | – | – | –
Cc1nc(CCCCCOCc2ccccc2)n2nc(Cl)ccc12 | 290000 nM | 2300 nM | 380 nM | 580 nM | –
CCc1cc(NCc2nc3c(Cl)ccc(Cl)c3o2)c(O)nc1C [L-697661] | – | – | 7 nM | 7 nM | EC50 [6]: > 10000 nM; IC50 [7]: 850 nM
Cc1nc(CCCCCCC(O)c2ccccc2)n2nc(-n3ccnc3)ccc12 (stereo unspecified) | 26000 nM | 230 nM | 4 nM | 6 nM | –
CCc1nc(CCCCCCC(=O)c2ccccc2)n2nc(Cl)ccc12 | 25000 nM | 2000 nM | – | – | –
Cc1nc(CCCCCOC(=O)c2ccccc2)n2nc(Cl)ccc12 | > 25000 nM | 1340 nM and 1300 nM | 1100 nM | 1600 nM | –
Cc1nc(CCCCCC(=O)Cc2ccccc2)n2nc(Cl)ccc12 | 28000 nM | 3900 nM | – | – | –
Cc1nc(CCCCCCC(=O)c2ccccc2)n2nc(N3CCCC3)ccc12 | < 30 nM | 50 nM | – | – | EC50 [8]: Toxic
Cc1nc(CCCCCCC(=O)c2ccccc2)n2nc(-n3cncn3)ccc12 | 26000 nM | 100 nM | – | – | –
Cc1nc(CCCCCCC(=O)c2ccccc2)n2ncccc12 | 280000 nM | 560 nM | – | – | –
Cc1nc(CCCCCCC(=O)c2ccccc2)n2nc(-n3cncc3C)ccc12 | 26000 nM | 100 nM | 30 nM | 10 nM | –
Cc1nc(CCCCCCC(=O)c2ccccc2)n2nc(-n3cccn3)ccc12 | 26000 nM | 3400 nM | – | – | –
Cc1nc(CCCCCCC(=O)c2ccccc2)n2nc(-n3nccn3)ccc12 | 260000 nM | 1300 nM | – | – | –

Compound | IC50 [1] | IC50 [2] | EC50 [3] | EC50 [4] | also measured
CC(=O)OCCCCCc1nc(C)c2ccc(Cl)nn12 | – | 110000 nM | – | – | –
COc1ccc2c(C)nc(CCCCCCC(=O)c3ccccc3)n2n1 | 250000 nM | 640 nM | – | – | –
Cc1nc(CCCCCCC(=O)c2ccccc2)n2nc(-n3ccnc3)ccc12 | 26000 nM | 0.6 nM | 5 nM | 0.6 nM | EC50 [5]: 1900 nM
Cc1nc(CCCCCCC(=O)c2ccccc2)n2nc(-n3ccnn3)ccc12 | 26000 nM | 640 nM | – | – | –
O=C(CCCCCCc1ncc2ccc(Cl)nn12)c1ccccc1 | 25000 nM | 340 nM | 340 nM | 210 nM | –
CC(C)c1nc(CCCCCCC(=O)c2ccccc2)n2nc(Cl)ccc12 | – | 110000 nM | – | – | –
Cc1nc(CCCCCCC(=O)c2ccccc2)n2nc(-n3cnnc3)ccc12 | 260000 nM | 2600 nM | – | – | –
CNc1ccc2c(C)nc(CCCCCCC(=O)c3ccccc3)n2n1 | 25000 nM | 3400 nM | – | – | –
Cc1nc(CCCCCCC(=O)c2ccccc2)n2nc(N(C)C)ccc12 | 27000 nM | 270 nM | – | – | –
Cc1nc(CCCCCCCC(=O)c2ccccc2)n2nc(Cl)ccc12 | 250000 nM | 3000 nM | – | – | –
Cc1nc(CCCCCCC(=O)c2ccccc2)n2nc(Cl)ccc12 | 25000 nM | 840 nM | 80 nM | 80 nM | –
Cc1nc(CCCCCO)n2nc(Cl)ccc12 | – | > 100000 nM | – | – | –
Cc1nc(CCCCCCC(=O)c2ccccc2)n2nc(N)ccc12 | 30000 nM | 3000 nM | – | – | –
Cc1nc(CCCCCCC(=O)c2ccccc2)n2nc(N3CCCCC3)ccc12 | – | 6700 nM | – | – | –
Cc1cn(-c2ccc3c(C)nc(CCCCCCC(=O)c4ccccc4)n3n2)cn1 | 260000 nM | 550 nM | 160 nM | 65 nM | –
CSc1ccc2c(C)nc(CCCCCCC(=O)c3ccccc3)n2n1 | 27000 nM | 80 nM | – | – | –
Cc1nc(CCCCCCC(=O)c2ccccc2)n2nc(-n3ccnc3C)ccc12 | 260000 nM | 2500 nM | – | – | –
